Experimental data as given in the supplement of paper PMC10307832.

compound: O=C(O)C(Cc1ccccc1[N+](=O)[O-])=NNc1nc(-c2ccc(Cl)c(Cl)c2)cs1 (mixture of isomers) [4EGI-1] + CS(=O)(=O)CCNCc1ccc(-c2ccc3ncnc(Nc4ccc(OCc5cccc(F)c5)c(Cl)c4)c3c2)o1 [Lapatinib] (partner 2 µM); assay: relative viability (nuclei count vs DMSO), 5 days (fraction); higher = more cells survive; details: first compound 0.5 µM
Method in brief: (§1)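 Relative viability is defined as nuclei in treated wells over nuclei in vehicle wells. Duplicate plates were run and medians reported. Lung cancer cell lines in 1536-well plates were dosed by pin tool one day after seeding, with one drug or with a fixed anchor-drug dose plus five library-drug doses (not always all listed) in √10 steps, and nuclei were counted after 5 days.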

Row | Cell Line | relative viability
1 | NCI-H2126 | 0.832
2 | NCI-H2170 | 0.32
3 | NCI-H2228 | 1.36
4 | NCI-H2347 | 0.898
5 | NCI-H2405 | 1.27
6 | NCI-H3122 | 1.05
7 | PC-3 [JPC-3] | 0.518
8 | PC-14 | 0.355
9 | RERF-LC-KJ | 0.93
10 | SK-LU-1 | 0.972
11 | SK-MES-1 | 0.51
12 | SW 1573 | 1.33
13 | UMC-11 | 1.19

same assay, conditions: first compound 1.581 µM

Row | Cell Line | relative viability
14 | NCI-H2126 | 0.836
15 | NCI-H2170 | 0.266
16 | NCI-H2228 | 1.1
17 | NCI-H2347 | 0.746
18 | NCI-H2405 | 0.801
19 | NCI-H3122 | 0.922
20 | PC-3 [JPC-3] | 0.416
21 | PC-14 | 0.353
22 | RERF-LC-KJ | 0.677
23 | SK-LU-1 | 1.06
24 | SK-MES-1 | 0.419
25 | SW 1573 | 0.86
26 | UMC-11 | 0.825

same assay, conditions: first compound 5 µM

Row | Cell Line | relative viability
27 | NCI-H2126 | 0.76
28 | NCI-H2170 | 0.289
29 | NCI-H2228 | 1.03
30 | NCI-H2347 | 0.909
31 | NCI-H2405 | 1.23
32 | NCI-H3122 | 1.02
33 | PC-3 [JPC-3] | 0.443
34 | PC-14 | 0.371
35 | RERF-LC-KJ | 0.808
36 | SK-LU-1 | 0.803
37 | SK-MES-1 | 0.479
38 | SW 1573 | 1.17
39 | UMC-11 | 1.31

same assay, conditions: first compound 15.81 µM

Row | Cell Line | relative viability
40 | NCI-H2126 | 0.736
41 | NCI-H2170 | 0.264
42 | NCI-H2228 | 0.803
43 | NCI-H2347 | 0.855
44 | NCI-H2405 | 1.09
45 | NCI-H3122 | 0.955
46 | RERF-LC-KJ | 0.64
47 | SK-LU-1 | 0.698
48 | SK-MES-1 | 0.459
49 | SW 1573 | 0.898
50 | UMC-11 | 1.17

same assay, conditions: first compound 50 µM

Row | Cell Line | relative viability
51 | NCI-H2126 | 0.643
52 | NCI-H2170 | 0.235
53 | NCI-H2228 | 0.172
54 | NCI-H2347 | 0.844
55 | NCI-H2405 | 0.685
56 | NCI-H3122 | 0.578
57 | PC-3 [JPC-3] | 0.39
58 | PC-14 | 0.296
59 | RERF-LC-KJ | 0.644
60 | SK-LU-1 | 0.487
61 | SK-MES-1 | 0.395
62 | SW 1573 | 1.17
63 | UMC-11 | 0.669

compound: CN1CCN(CC1)C2=CC(=C(C=C2)NC3=NC=C4C(=N3)N(C5=CC=CC=C5C(=O)N4C)C)OC [XMD8-85] + CS(=O)(=O)N1CCN(Cc2cc3nc(-c4cccc5[nH]ncc45)nc(N4CCOCC4)c3s2)CC1 [Pictilisib] (partner 1 µM); assay: as above; details: first compound 0.08 µM
Method in brief: as §1

Row | Cell Line | relative viability
64 | NCI-H2126 | 0.503
65 | NCI-H2170 | 0.26
66 | NCI-H2228 | 0.469
67 | NCI-H2347 | 0.637
68 | NCI-H2405 | 0.388
69 | NCI-H3122 | 0.687
70 | PC-3 [JPC-3] | 0.717
71 | PC-14 | 0.618
72 | RERF-LC-KJ | 0.504
73 | SK-LU-1 | 0.397
74 | SK-MES-1 | 0.349
75 | SW 1573 | 0.574
76 | UMC-11 | 0.696

same assay, conditions: first compound 0.253 µM

Row | Cell Line | relative viability
77 | NCI-H2126 | 0.497
78 | NCI-H2170 | 0.341
79 | NCI-H2228 | 0.353
80 | NCI-H2347 | 0.531
81 | NCI-H2405 | 0.528
82 | NCI-H3122 | 0.573
83 | PC-3 [JPC-3] | 0.666
84 | PC-14 | 0.521
85 | RERF-LC-KJ | 0.444
86 | SK-MES-1 | 0.371
87 | SW 1573 | 0.523
88 | UMC-11 | 0.757

same assay, conditions: first compound 0.8 µM

Row | Cell Line | relative viability
89 | NCI-H2126 | 0.531
90 | NCI-H2170 | 0.335
91 | NCI-H2228 | 0.202
92 | NCI-H2347 | 0.555
93 | NCI-H2405 | 0.402
94 | NCI-H3122 | 0.649
95 | PC-3 [JPC-3] | 0.766
96 | PC-14 | 0.661
97 | RERF-LC-KJ | 0.524
98 | SK-LU-1 | 0.569
99 | SK-MES-1 | 0.342
100 | SW 1573 | 0.591
101 | UMC-11 | 0.922

same assay, conditions: first compound 2.53 µM

Row | Cell Line | relative viability
102 | NCI-H2126 | 0.522
103 | NCI-H2170 | 0.305
104 | NCI-H2228 | 0.363
105 | NCI-H2347 | 0.437
106 | NCI-H2405 | 0.373
107 | NCI-H3122 | 0.646
108 | PC-3 [JPC-3] | 0.879
109 | PC-14 | 0.681
110 | RERF-LC-KJ | 0.603
111 | SK-LU-1 | 0.6
112 | SK-MES-1 | 0.383
113 | SW 1573 | 0.487
114 | UMC-11 | 0.796

same assay, conditions: first compound 8 µM

Row | Cell Line | relative viability
115 | NCI-H2126 | 0.429
116 | NCI-H2170 | 0.289
117 | NCI-H2228 | 0.247
118 | NCI-H2347 | 0.604
119 | NCI-H2405 | 0.303
120 | NCI-H3122 | 0.611
121 | PC-3 [JPC-3] | 0.672
122 | PC-14 | 0.462
123 | RERF-LC-KJ | 0.412
124 | SK-LU-1 | 0.522
125 | SK-MES-1 | 0.375
126 | SW 1573 | 0.357
127 | UMC-11 | 0.513
